Measured values published in patent US9328369B2, “Process for production of useful substance, and surfactant for use in the process” (priority 2009, dated 2016).

These compounds were tested on Escherichia coli (α) (assay: Screening of secretion efficiency, alkaline phosphatase expressing strain). Conditions: surfactant 1 wt %; 37° C., 1 hour; ELISA, anti-His-tag antibody.
Format: cell-based
Excerpt: An alkaline phosphatase (phoA) gene of an Escherichia coli strain W3110 was amplified by the PCR method using primers 1 and 2 (Table 4). After being treated with restriction enzymes NdeI and BamHI, a PCR fragment was bound with an NdeI restriction enzyme site and with a BamHI restriction enzyme site of a pET-22b plasmid (product of Novagen). Then, the plasmid was transformed into an AG1 (DE3) Escherichia coli strain formed by transforming an Escherichia coli strain AG1 (product of TOYOBO Co., LTD.) with use of a λDE3 Lysogenization Kit (product of Novagen). In this manner, an alkaline phosphatase expressing strain (a) was formed.
A pdxA gene of an Escherichia coli strain W3110 was amplified by the PCR method using primers 5 and 6 (Table 4). After being treated with restriction enzymes NdeI and BamHI, a PCR fragment was bound to an NdeI restriction enzyme site and a BamHI restriction enzyme site of a pET-22b plasmid (product of Novagen). Then, the plasmid was transformed into an AG1 (DE3) Escherichia coli strain to form a PdxA expressing strain (γ).
In this manner, culture solutions were prepared.
(2) The strains were collected using a centrifuge (4,000 G, 4° C., 15 minutes). Each of the collected Escherichia coli strains was resuspended in 1 mL of a TB culture solution (product of Difco) and chloramphenicol (30 mg/L) and IPTG (100 μM) were added thereto. Shake culture at 37° C. for 3 hours induced expression of phoA, torA, and pdxA.
(3) Subsequently, harvesting using a centrifuge was carried out again (4,000 G, 4° C., 15 minutes). Each of the collected Escherichia coli strains was resuspended in 2.5 mL of a Tris-NaCl buffer solution (50 mM Tris (pH 7.5), 100 mM NaCl). The resulting solution was divided into 25-μL portions at a time to be mixed with 25 μL of a Tris-NaCl buffer solution.
(4) Then, the solution was allowed to stand at 37° C. for 1 hour. The supernatant solution was collected and diluted in a Tris-NaCl buffer solution to a proper concentration. Here, the quantification of the recombinant protein in the resulting solution was carried out by ELISA assay with use of an anti-His-tag antibody. The sample prior to the centrifugation in the process (3) was treated with ultrasonic waves (200 W, 10 minutes) and the quantification of the recombinant protein therein was similarly carried out by ELISA assay with use of an anti-His-tag antibody. The ratio of lysed bacteria was obtained with use of Escherichia coli (γ), and the secretion efficiencies of the recombinant proteins of Escherichia coli (α) and (β) were calculated by using the following formula. […] Secretion efficiency (%)=100×{(X/Y)−Z}.
In the formula, “X” represents the amount of the recombinant protein in the culture solution after removal of bacterial cells by centrifugation in the case of using Escherichia coli (α) or (β).
“Y” represents the amount of the whole recombinant protein in the culture solution in the case of using Escherichia coli (α) or (β).
“Z” represents the ratio of lysed bacteria obtained with use of Escherichia coli (γ), which is determined by the following formula: Z=Z1/Z2.
In the formula, “Z1” represents the amount of the recombinant protein in the culture solution which remains after removal of bacterial cells by centrifugation in the case of using Escherichia coli (γ).
“Z2” represents the amount of the whole recombinant protein in the culture solution in the case of using Escherichia coli (γ).
Escherichia coli (α) and (β) were each cultured in the same manner as in the above case except that polyoxyethylene (3 mol) tridecyl ether sodium acetate as the surfactant (A) was added right after the resuspension of the Escherichia coli in the buffer solution in the process (3) of A-0, in an amount of 1% by weight on the basis of the weight of the suspension of the bacterium. The secretion efficiency was calculated according to the above-mentioned definition.

Compound | Secretion efficiency (%) Escherichia coli (α)
Polyoxyethylene isostearyl ether [A-34] | 5.3%
polyoxyethylene-p-isooctyl phenol [A-16] | 36.7%
Polyoxyethylene (Mw = 300) oleate diester [A-57] | 1.5%
Palm oil fatty acid diethanol amide [A-2] | 97.5%
EO 25 mol adduct of cured castor oil [A-44] | 3.0%
Ester thiodipropionate of polyoxyethylene (3 mol) alkyl (C12, C15) ether [A-25] | 11.8%
Polyoxyethylene (3 mol) lauryl ether acetate [A-24] | 16.1%
EO 10 mol adduct of oleyl alcohol [A-59] | 1.1%
Lanolin fatty acid aminopropyl ethylene dimethyl ammonium ethyl sulfate [A-28] | 9.2%
Polyoxyethylene(Mw = 600)oleate monoester [A-67] | 0.3%
Behenylamide propyldimethylamine [A-47] | 2.8%
Polyoxyethylene (Mw = 400) oleate monoester [A-58] | 1.3%
Isostearylalcohol polyoxyethylene (5 mol) sodium phosphate [A-31] | 6.2%
1,2-dodecandiol monooxyethylene adduct [A-4] | 90.7%
Sorbitan monooleate [A-43] | 3.5%
Oleic acid 4.5 mol ester of sorbitol EO 40 mol adduct [A-63] | 0.7%
Polyoxyethylene(10 mol)cetyl ether [A-65] | 0.5%
EO 20 mol adduct of sorbitan trioleate [A-41] | 4.6%
Isostearyl alcohol polyoxyethylene (5 mol) adduct sodium ether carboxylate [A-52] | 2.2%
Sodium polyoxyethylene (2.5 mol) laurylether sulfate [A-11] | 53.2%
Polyoxyethylene(EO 20 mol)sorbitan monostearate [A-72] | 0.0%
Polyoxyethylene glyceryl triisostearate [A-32] | 5.9%
Polyethylene glycol diisostearate [A-38] | 5.1%
Didecyl dimethyl ammonium adipate [A-42] | 4.3%
Stearylamine polyoxyethylene (15 mol) adduct [A-26] | 11.0%

Compound | Secretion efficiency (%) Escherichia coli (α)
Polyoxyethylene (Mw = 190) stearic acid diester [A-33] | 5.5%
CCCCCCCCCCCCOS(=O)(=O)[O-].[Na+] [A-69, Sodium lauryl sulfate] | 0.0%
CCCCCCCCCCCCCCCCCC[N+](C)(C)CCCCCCCCCCCCCCCCCC.[Cl-] [A-50, Distearyl dimethyl ammonium chloride] | 2.3%
PO 20 mol and EO 9 mol adduct of ethylhexanol [A-51] | 2.3%
Polyoxyethylene(Mw = 1000)dioleate [A-66] | 0.3%
C[C@H](CCC(=O)[O-])[C@H]1CC[C@H]2[C@@H]3[C@H](O)C[C@@H]4C[C@H](O)CC[C@]4(C)[C@H]3C[C@H](O)[C@]12C.[Na+] [A-82, sodium cholate] | 0.0%
Polyethylene glycol monoisostearate [A-29] | 7.6%
CCCCCCCCCCCCCCCCCC[N+](C)(C)C.[Cl-] [A-15, Stearyl trimethyl ammonium chloride] | 37.3%
EO 3 mol adduct of higher alcohol (C11 to C 15) [A-10] | 56.9%
Polyoxyethylene (20 mol) sorbitan monolaurate [A-56] | 1.6%
Palm oil fatty acid sorbitan [A-54] | 1.7%
EO 24 mol adduct trilaurate of trimethylolpropane [A-64] | 0.5%
EO 10 mol adduct of cured castor oil [A-55] | 1.7%
Polyoxyethylene (20 mol) sorbitan monooleate [A-37] | 5.2%
Triethanol amine alkyl (C12, C13) sulfate [A-18] | 30.7%
Polyethylene glycol diisostearate [A-22] | 26.2%
Polyethylene glycol monoisostearate [A-40] | 4.9%
2-alkyl-N-carboxymethyl-N-hydroxyethyl imidazolinium betaine [A-23] | 20.2%
Polyoxyethylene (Mw = 200) oleate monoester [A-35] | 5.3%
Sorbitan trioleate [A-49] | 2.4%
Lauryl diphenyl ether sodium disulfonate [A-74] | 0.0%
Sodium dodecyl diphenyl ether disulfonate [A-8] | 79.1%
CCCCCCCCCC[N+](C)(C)CCCCCCCCCC.[Cl-] [A-48, Didecyl dimethyl ammonium chloride] | 2.7%
EO 6 mol adduct of decyl alcohol [A-12] | 53.1%
CCCCCCCCCC[N+](C)(C)CCCCCCCCCC.[Cl-] [A-20, Didecyl dimethylammonium chloride] | 28.7%
